Measured values taken from patent publication US11389455B2, “Inhibitors of HIV-1 integrase multimerization” (Institute for Cancer Research, priority 2017, dated 2022).
Where two headings read alike, the source gives them in different places.

Tests used:
[1] = biological target: T1, HIV IN (Wild-type monomer) (Human immunodeficiency virus type 1 group M subtype B, UniProt P04585); assay type: biochemical, HIV-1; conditions: for I.I.(K Counts) CI/SI: ratio concerted/single end integration counts
T1 construct: 1 uM HIV IN (Wild-type monomer)

HeLa cells [2] = test system: HeLa cells
[3] = biological target: T2, Avian Sarcoma Virus integrase (UniProt P03354); test: Specificity: single end and concerted integration in vitro, ASV integrase; assay type: biochemical; conditions: Table 6
T2 sequence (P03354 1281-1567): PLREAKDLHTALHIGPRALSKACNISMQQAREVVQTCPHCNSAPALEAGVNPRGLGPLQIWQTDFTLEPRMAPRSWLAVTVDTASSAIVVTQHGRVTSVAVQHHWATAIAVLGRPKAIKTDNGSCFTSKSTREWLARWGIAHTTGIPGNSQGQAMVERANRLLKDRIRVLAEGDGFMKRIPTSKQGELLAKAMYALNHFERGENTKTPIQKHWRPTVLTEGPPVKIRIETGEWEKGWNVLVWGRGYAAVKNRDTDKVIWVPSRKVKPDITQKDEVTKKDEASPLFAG

[4] = biological target: Prototype Foamy Virus (PFV) integrase (Human spumaretrovirus, UniProt P14350); test: Specificity: single end and concerted integration in vitro, PFV integrase; assay type: biochemical; conditions: Table 6
HeLa cells [5] = test: Cell toxicity during the infection experiment (Tox/Infect), 24 hours exposure; conditions: only 24 hours of exposure
[6] = test system: Envelope pseudotyped virus particles infecting HeLa cells; test: Inhibition of infectivity, single round GFP reporter virus, percent GFP positive cells; conditions: read-out: Infectivity EC50
[7] = Table 1, cross validation assay at compound concentration of 10 uM
[8] = Table 5, concerted integration, read-out: Concerted IC50
[9] = Table 5, single-end integration, read-out: Single End IC50
[10] = Table 6, read-out: HIV Concerted IC50
[11] = Table 6, read-out: HIV Single End IC50
[12] = HeLa cells, compound exposure for 3 days, preliminary

Cn1nc(-c2ccc([N+](=O)[O-])cc2)nc2c(=O)n(C)c(=O)nc1-2 [Formula I-12]
Relative % concerted integration [1, 7]: 3.26%

CCn1nc(-c2cc(Br)cs2)nc2c(=O)n(C)c(=O)nc1-2 [Formula I-6]
Relative % concerted integration [1, 7]: 1.72%

CCn1nc(-c2cccs2)nc2c(=O)n(C)c(=O)nc1-2 [Formula I-3]
Relative % concerted integration [1, 7]: 2.07%

CCc1ccc(-c2nc3c(=O)n(C)c(=O)nc-3n(CC)n2)cc1 [Formula I-13]
Relative % concerted integration [1]: 7.07% (IC50 of 0.27 μM)
IC50 ([1]; Concerted IC50): 0.27 µM
IC50 ([1]; IC50 (concerted integration)): 0.27 µM
IC50 ([1]; Single End IC50): 1.4 µM
Toxicity LD50 (HeLa cells [2]; human, 3 days): 3.2 µM

Cn1nc(-c2ccccc2)nc2c(=O)n(C)c(=O)nc1-2 [Formula I-9]
Relative % concerted integration [1, 7]: 2.73%

Cn1nc(-c2ccc(F)cc2)nc2c(=O)n(C)c(=O)nc1-2 [Formula I-8]
Relative % concerted integration [1, 7]: 0.42%

Cn1ncnc2c(=O)n(C)c(=O)nc1-2 [Formula I-1]
Relative % concerted integration [1, 7]: 3.84%
IC50 ([1]; Table 1, read-out: IC50 (concerted integration)): 0.2 µM
activity at 0.001 µM ([1]; Table 4, Form F3 (concerted integration), 0.001 uM, read-out: Rel % Activity): 99.6%
activity at 0.005 µM ([1]; Table 4, Form F3 (concerted integration), 0.005 uM, read-out: Rel % Activity): 83.8%
activity at 0.01 µM ([1]; Table 4, Form F3 (concerted integration), 0.01 uM, read-out: Rel % Activity): 92.4%
activity at 0.05 µM ([1]; Table 4, Form F3 (concerted integration), 0.05 uM, read-out: Rel % Activity): 78.2%
activity at 0.1 µM ([1]; Table 4, Form F3 (concerted integration), 0.1 uM, read-out: Rel % Activity): 75.3%
activity at 0.5 µM ([1]; Table 4, Form F3 (concerted integration), 0.5 uM, read-out: Rel % Activity): 17.4%
activity at 1 µM ([1]; Table 4, Form F3 (concerted integration), 1 uM, read-out: Rel % Activity): 6.42%
activity at 5 µM ([1]; Table 4, Form F3 (concerted integration), 5 uM, read-out: Rel % Activity): 0.705%
activity at 10 µM ([1]; Table 4, Form F3 (concerted integration), 10 uM, read-out: Rel % Activity): 0.419%
activity at 50 µM ([1]; Table 4, Form F3 (concerted integration), 50 uM, read-out: Rel % Activity): 0.366%
activity at 100 µM ([1]; Table 4, Form F3 (concerted integration), 100 uM, read-out: Rel % Activity): 0.453%
activity at 500 µM ([1]; Table 4, Form F3 (concerted integration), 500 uM, read-out: Rel % Activity): 0.433%
activity at 1000 µM ([1]; Table 4, Form F3 (concerted integration), 1000 uM, read-out: Rel % Activity): 1.34%
IC50 [1, 8]: 0.2 µM
IC50 [1, 9]: 1.25 µM
IC50 [1, 10]: 0.2 µM
IC50 [1, 11]: 1.25 µM
I.I.(K Counts) CI/SI ([1]; 0.001 uM): 1.336
I.I.(K Counts) CI/SI ([1]; 0.005 uM): 1.067
I.I.(K Counts) CI/SI ([1]; 0.01 uM): 1.193
I.I.(K Counts) CI/SI ([1]; 0.05 uM): 1.007
I.I.(K Counts) CI/SI ([1]; 0.1 uM): 0.978
I.I.(K Counts) CI/SI ([1]; 0.5 uM): 0.331
I.I.(K Counts) CI/SI ([1]; 1 uM): 0.159
I.I.(K Counts) CI/SI ([1]; 5 uM): 0.034
I.I.(K Counts) CI/SI ([1]; 10 uM): 0.022
I.I.(K Counts) CI/SI ([1]; 50 uM): 0.020
I.I.(K Counts) CI/SI ([1]; 100 uM): 0.026
I.I.(K Counts) CI/SI ([1]; 500 uM): 0.033
I.I.(K Counts) CI/SI ([1]; 1000 uM): 0.107
activity at 0.005 µM ([1]; read-out: Rel % Activity): 106%
IC50 ([3]; read-out: ASV Concerted IC50): > 100 µM
IC50 ([3]; read-out: ASV Single End IC50): > 100 µM
IC50 ([4]; read-out: PFV Concerted IC50): > 1000 µM
IC50 ([4]; read-out: PFV Single End IC50): > 1000 µM
Toxicity LD50 (HeLa cells [2]; [12]): 0.43 µM
Tox/Infect LD50 (HeLa cells [5]): >5 µM
EC50 [6]: 0.3 µM

Cn1nc(/C=C\c2ccccc2)nc2c(=O)n(C)c(=O)nc1-2 [Formula I-11]
Relative % concerted integration [1, 7]: 1.76%

Cc1nnc(C(=O)NC(C)(C)c2nc(C(=O)NCc3ccc(F)cc3)c(O)c(=O)n2C)o1 [RAL, Raltegravir, reference compound]
IC50 ([3]; read-out: ASV Concerted IC50): 0.6 µM
IC50 ([3]; read-out: ASV Single End IC50): 22 µM
IC50 ([4]; read-out: PFV Concerted IC50): 1 µM
IC50 ([4]; read-out: PFV Single End IC50): < 10 µM
Toxicity LD50 (HeLa cells [2]; [12]): >20 µM
Tox/Infect LD50 (HeLa cells [5]): >10 µM
EC50 [6]: 0.05 µM

O=C(O)CCCCCNc1ccc([N+](=O)[O-])c2nonc12 [II-2]
IC50 ([1]; Concerted IC50): 500 µM
IC50 ([1]; Single End IC50): > 1000 µM
Toxicity LD50 (HeLa cells [2]; [12]): >50 µM

CCn1nc(-c2ccc(C(F)(F)F)cc2)nc2c(=O)n(C)c(=O)nc1-2 [Formula I-5]
Relative % concerted integration [1, 7]: 0.72%

Cn1nc(-c2ccc(C(F)(F)F)cc2)nc2c(=O)n(C)c(=O)nc1-2 [Formula I-10]
Relative % concerted integration [1, 7]: 1.56%

O=C(CCCCCNc1ccc([N+](=O)[O-])c2nonc12)ON1C(=O)CCC1=O [II-4]
IC50 [1, 8]: 16 µM
IC50 [1, 9]: 71 µM
IC50 [1, 10]: 16 µM
IC50 [1, 11]: 65 µM
IC50 ([3]; read-out: ASV Concerted IC50): 53 µM
IC50 ([3]; read-out: ASV Single End IC50): 175 µM
IC50 ([4]; read-out: PFV Concerted IC50): > 390 µM
IC50 ([4]; read-out: PFV Single End IC50): > 350 µM
Toxicity LD50 (HeLa cells [2]; [12]): >50 µM
Tox/Infect LD50 (HeLa cells [5]): >20 µM
EC50 [6]: 5 µM

CCn1nc(-c2ccccn2)nc2c(=O)n(C)c(=O)nc1-2 [Formula I-2]
Relative % concerted integration [1, 7]: 6.33%

Nc1ccc(N2CCCCC2)c2nonc12 [II-3]
IC50 ([1]; Concerted IC50): 15 µM
IC50 ([1]; Single End IC50): > 1000 µM
Toxicity LD50 (HeLa cells [2]; human, 3 days): 25 µM

CCCc1nc2c(=O)n(C)c(=O)nc-2n(C)n1 [Formula I-7]
Relative % concerted integration [1, 7]: 0.07%

CCn1nc(-c2cc(Br)ccc2F)nc2c(=O)n(C)c(=O)nc1-2 [Formula I-4]
Relative % concerted integration [1, 7]: 0.26%
